# Tests used:
# Settings in all cases: binder
# RIOK2 = RIOK2 (Homo sapiens, UniProt Q9BVS4)
# CSNK2A1 = CSNK2A1 (Homo sapiens, UniProt P68400)
# LRRK2 (G2019S) = LRRK2 (G2019S) (Homo sapiens, UniProt Q5S007, G2019S)
# BMPR1B = BMPR1B (Homo sapiens, UniProt O00238)
# NUAK2 = biological target: T1, NUAK2 (Homo sapiens, UniProt Q9H093)
# T1 sequence (Q9H093 1-628): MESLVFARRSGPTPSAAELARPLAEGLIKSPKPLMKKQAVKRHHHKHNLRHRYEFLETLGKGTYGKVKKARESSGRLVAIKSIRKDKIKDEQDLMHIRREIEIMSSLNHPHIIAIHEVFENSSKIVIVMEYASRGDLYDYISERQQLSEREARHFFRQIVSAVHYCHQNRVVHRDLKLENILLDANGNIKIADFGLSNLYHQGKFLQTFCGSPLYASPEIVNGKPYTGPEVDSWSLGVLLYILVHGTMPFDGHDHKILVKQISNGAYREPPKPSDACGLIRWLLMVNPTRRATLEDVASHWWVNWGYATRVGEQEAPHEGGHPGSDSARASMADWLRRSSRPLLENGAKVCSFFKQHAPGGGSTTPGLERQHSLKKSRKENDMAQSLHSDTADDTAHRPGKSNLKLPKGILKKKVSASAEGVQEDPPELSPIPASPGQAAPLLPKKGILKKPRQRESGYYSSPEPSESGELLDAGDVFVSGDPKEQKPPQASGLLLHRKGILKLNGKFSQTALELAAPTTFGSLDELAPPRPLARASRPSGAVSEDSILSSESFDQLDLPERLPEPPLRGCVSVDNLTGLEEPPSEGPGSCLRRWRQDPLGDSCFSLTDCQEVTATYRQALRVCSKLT
# JAK2 = JAK2 (Homo sapiens, UniProt O60674)
# Sequence of JAK2 (O60674 whole entry): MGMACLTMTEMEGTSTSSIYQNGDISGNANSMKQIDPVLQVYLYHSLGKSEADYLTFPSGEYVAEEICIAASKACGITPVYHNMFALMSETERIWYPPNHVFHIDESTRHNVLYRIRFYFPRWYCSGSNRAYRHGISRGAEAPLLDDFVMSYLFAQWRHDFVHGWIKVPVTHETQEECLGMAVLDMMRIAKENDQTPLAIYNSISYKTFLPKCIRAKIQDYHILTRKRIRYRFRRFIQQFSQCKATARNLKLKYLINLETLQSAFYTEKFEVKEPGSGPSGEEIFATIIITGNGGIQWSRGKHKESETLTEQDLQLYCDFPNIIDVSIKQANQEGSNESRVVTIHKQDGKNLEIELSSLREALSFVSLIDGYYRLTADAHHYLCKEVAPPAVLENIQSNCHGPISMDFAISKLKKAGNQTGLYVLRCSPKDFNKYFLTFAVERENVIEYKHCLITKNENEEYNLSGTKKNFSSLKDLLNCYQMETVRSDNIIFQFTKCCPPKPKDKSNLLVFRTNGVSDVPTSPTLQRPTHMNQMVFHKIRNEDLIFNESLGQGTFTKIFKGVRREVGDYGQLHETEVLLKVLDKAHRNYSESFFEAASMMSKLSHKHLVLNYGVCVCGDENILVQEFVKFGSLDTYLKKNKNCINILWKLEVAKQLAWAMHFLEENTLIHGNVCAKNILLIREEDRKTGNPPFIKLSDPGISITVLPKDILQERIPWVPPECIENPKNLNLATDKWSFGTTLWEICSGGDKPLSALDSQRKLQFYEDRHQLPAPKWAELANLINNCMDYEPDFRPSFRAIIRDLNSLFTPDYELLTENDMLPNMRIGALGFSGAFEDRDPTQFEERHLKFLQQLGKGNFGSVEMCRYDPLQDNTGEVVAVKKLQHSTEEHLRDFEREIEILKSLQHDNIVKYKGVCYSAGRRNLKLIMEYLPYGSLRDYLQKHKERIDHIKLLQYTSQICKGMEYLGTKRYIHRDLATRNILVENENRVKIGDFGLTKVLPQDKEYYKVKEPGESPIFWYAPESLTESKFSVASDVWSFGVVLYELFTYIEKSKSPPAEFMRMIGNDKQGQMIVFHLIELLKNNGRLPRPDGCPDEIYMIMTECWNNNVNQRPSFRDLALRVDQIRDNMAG
# NUAK1 = biological target: T2, NUAK1 (Homo sapiens, UniProt O60285)
# T2 sequence (O60285 1-661): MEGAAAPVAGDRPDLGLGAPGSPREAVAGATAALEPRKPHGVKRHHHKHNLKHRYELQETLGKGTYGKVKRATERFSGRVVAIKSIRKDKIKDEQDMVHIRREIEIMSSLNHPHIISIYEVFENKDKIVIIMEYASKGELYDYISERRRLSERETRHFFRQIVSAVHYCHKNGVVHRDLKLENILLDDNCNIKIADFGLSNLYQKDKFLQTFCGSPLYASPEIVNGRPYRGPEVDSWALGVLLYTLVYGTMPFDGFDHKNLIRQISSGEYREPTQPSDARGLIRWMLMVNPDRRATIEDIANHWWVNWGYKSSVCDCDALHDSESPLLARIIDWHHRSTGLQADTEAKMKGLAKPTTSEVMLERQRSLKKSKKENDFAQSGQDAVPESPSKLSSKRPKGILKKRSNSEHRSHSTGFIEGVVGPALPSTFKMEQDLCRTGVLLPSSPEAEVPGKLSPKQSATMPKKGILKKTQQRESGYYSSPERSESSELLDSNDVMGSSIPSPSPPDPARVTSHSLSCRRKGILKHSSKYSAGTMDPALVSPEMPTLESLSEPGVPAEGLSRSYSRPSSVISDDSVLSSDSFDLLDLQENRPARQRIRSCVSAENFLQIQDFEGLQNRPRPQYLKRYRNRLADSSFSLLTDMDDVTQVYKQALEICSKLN
# LRRK2 = LRRK2 (Homo sapiens, UniProt Q5S007)
# Sequence of LRRK2 (Q5S007 whole entry): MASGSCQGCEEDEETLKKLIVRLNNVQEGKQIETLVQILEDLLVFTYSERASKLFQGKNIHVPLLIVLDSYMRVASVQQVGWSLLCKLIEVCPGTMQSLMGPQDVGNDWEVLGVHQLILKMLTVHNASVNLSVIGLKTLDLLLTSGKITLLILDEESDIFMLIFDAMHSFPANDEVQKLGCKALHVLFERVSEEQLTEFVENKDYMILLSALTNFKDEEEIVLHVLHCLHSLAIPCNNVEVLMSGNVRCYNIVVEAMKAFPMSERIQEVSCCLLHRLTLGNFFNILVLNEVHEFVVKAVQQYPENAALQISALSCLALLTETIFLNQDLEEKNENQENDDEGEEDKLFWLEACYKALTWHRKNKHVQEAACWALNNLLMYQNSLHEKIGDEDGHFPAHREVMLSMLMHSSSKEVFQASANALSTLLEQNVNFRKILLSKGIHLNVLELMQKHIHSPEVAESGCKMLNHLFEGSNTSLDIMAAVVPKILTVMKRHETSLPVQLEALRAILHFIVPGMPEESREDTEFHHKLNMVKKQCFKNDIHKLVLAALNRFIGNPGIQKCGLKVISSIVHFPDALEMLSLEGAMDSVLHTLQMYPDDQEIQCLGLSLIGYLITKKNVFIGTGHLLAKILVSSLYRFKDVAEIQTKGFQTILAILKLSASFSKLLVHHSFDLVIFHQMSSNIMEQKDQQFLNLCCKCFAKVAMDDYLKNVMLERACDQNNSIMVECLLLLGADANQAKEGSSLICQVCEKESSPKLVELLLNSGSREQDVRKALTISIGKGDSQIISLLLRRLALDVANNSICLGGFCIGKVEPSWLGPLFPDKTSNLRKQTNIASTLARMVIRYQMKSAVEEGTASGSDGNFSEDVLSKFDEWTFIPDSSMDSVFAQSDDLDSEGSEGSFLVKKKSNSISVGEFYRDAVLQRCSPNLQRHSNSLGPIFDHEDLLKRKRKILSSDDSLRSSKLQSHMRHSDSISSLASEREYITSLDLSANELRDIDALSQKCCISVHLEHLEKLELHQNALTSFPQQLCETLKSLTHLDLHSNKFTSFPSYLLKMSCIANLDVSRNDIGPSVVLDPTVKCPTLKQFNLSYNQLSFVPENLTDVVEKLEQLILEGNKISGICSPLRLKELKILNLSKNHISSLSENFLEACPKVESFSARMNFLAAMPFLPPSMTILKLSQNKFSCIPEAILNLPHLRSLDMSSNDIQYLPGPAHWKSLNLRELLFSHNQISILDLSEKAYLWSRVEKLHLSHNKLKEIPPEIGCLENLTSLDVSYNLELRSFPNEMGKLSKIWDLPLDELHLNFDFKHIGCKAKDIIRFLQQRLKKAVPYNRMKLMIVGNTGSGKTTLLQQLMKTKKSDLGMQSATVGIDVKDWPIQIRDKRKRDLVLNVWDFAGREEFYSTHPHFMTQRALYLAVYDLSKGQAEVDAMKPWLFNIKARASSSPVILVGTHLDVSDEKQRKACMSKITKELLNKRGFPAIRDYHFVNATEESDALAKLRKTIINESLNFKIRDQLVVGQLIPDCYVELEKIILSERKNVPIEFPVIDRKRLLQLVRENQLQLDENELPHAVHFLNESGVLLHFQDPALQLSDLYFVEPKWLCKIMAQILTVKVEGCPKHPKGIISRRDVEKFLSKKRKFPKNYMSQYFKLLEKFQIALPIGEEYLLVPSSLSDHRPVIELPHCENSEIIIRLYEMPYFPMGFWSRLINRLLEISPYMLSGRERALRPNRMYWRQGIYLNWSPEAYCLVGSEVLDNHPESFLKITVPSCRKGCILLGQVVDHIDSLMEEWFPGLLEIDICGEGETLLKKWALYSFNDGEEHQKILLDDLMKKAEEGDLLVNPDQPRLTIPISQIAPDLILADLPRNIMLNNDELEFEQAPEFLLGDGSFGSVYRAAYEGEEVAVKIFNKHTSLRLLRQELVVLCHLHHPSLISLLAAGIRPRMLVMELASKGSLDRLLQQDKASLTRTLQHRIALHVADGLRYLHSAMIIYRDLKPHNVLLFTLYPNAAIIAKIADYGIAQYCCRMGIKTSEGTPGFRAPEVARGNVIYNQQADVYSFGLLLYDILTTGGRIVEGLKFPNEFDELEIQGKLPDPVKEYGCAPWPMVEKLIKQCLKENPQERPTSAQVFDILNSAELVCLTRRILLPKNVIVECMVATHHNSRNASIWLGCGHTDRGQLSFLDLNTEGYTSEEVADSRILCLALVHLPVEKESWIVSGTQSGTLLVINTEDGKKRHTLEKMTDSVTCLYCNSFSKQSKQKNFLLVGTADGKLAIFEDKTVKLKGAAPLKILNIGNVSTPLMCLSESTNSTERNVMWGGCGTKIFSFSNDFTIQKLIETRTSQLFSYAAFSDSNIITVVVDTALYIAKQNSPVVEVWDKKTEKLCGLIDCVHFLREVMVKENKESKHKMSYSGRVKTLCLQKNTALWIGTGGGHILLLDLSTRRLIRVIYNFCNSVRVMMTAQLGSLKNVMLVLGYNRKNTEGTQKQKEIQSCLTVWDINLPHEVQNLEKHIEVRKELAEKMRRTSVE
# Sequence of RIOK2 (Q9BVS4 whole entry): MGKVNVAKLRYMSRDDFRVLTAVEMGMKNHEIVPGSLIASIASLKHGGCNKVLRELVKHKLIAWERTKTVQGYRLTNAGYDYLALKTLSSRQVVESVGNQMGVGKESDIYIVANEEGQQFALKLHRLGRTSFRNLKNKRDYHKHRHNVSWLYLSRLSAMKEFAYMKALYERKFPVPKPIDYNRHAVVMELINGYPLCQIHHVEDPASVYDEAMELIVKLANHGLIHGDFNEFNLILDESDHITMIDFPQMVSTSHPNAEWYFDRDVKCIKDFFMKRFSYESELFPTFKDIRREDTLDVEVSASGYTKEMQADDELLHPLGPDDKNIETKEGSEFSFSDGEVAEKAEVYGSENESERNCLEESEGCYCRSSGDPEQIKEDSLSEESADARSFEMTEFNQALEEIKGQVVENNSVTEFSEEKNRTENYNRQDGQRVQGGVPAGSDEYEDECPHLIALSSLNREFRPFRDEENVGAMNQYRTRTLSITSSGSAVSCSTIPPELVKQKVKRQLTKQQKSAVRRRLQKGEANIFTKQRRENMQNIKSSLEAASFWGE
# Sequence of BMPR1B (O00238 whole entry): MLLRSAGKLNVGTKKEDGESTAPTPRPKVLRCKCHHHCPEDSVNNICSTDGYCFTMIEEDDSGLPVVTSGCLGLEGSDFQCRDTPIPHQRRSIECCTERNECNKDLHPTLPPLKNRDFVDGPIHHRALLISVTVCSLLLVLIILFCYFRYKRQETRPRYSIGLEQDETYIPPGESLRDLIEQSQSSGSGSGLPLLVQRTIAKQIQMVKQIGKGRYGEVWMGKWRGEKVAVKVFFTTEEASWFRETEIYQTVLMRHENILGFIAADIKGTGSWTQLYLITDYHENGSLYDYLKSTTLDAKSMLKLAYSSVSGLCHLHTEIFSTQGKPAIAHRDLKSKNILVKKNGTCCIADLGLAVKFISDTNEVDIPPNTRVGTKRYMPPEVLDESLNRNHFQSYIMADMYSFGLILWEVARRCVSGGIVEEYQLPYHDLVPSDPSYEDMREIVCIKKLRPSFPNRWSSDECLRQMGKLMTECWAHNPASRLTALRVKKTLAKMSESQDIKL
# Sequence of CSNK2A1 (P68400 whole entry): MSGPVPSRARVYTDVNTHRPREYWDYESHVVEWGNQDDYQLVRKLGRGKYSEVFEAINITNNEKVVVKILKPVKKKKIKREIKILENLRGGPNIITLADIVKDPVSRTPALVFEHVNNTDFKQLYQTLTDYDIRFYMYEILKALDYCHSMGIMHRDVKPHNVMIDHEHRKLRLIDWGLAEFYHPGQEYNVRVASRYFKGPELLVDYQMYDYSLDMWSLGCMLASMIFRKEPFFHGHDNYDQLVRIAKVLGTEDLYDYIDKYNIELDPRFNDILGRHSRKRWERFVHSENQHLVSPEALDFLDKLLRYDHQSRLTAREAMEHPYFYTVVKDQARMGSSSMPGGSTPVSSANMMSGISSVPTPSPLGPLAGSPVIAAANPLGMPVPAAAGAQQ
smiles,measurement,setting,value
"C[C@H](NC(=O)c1c[nH]c2ncc(C3CC3)nc12)C(C)(C)C [A1, UNC-BE4-017]",Compound A1 PoC,RIOK2,0%
same,Compound A1 PoC,CSNK2A1,0%
same,Compound A1 PoC,LRRK2 (G2019S),7.5%
same,Compound A1 PoC,BMPR1B,1.8%
same,Compound A1 PoC,NUAK2,1.2%
same,Compound A1 PoC,JAK2,0.4%
same,Compound A1 PoC,NUAK1,4.1%
same,Compound A1 PoC,LRRK2,2.1%

# From doi:10.1101/2021.02.21.432137v1 (biorxiv, 2021)
